What is called IC50 is the concentration needed to halve the response being measured.

Like-named read-outs stand apart in the source and are kept apart here.

1 compound from PMC8952293, “A Histone Deacetylase (HDAC) Inhibitor with Pleiotropic In Vitro Anti-Toxoplasma and Anti-Plasmodium Activities Controls Acute and Chronic Toxoplasma Infection in Mice” (International Journal of Molecular Sciences, 2022) can be followed below.

For series [1], the system named is P. falciparum NF54. The series can be described thus: In vitro P. falciparum erythrocytic infection (SYBR green I flow cytometry). The class given is cell-based. As to conditions: Plasmodium falciparum, PfNF54 blood stage, 48 h, three independent experiments. The procedure: Blood stage. Ring-stage synchronized cultures of PfNF54 at 2.5% hematocrit and at approximately 1% parasitemia were incubated with drugs or DMSO (vehicle control) in 96-well plates, for 48 h, at 37 °C in a 5% CO2 and 5% O2 atmosphere. The stock solution of JF363 was prepared in DMSO. Working solutions (1, 10, 100, 200, 500, 1000, 2000 nM) were prepared from the stock solution in a complete malaria culture medium (CMCM), which consisted of RPMI 1640 supplemented with 25 mM HEPES, 2.4 mM L-glutamine, 50 μg/mL gentamicin, 0.5% w/v AlbuMAX (Gibco BRL), 11 mM glucose, 1.47 mM hypoxanthine, and 37.3 mM NaHCO3. Five microliters of the culture (approximately 800,000 cells) was stained with the DNA-specific dye SYBR green I for each measurement. Following 20 min incubation in the dark, the stained sample was analyzed by flow cytometry. For each flow cytometry measurement, approximately 100,000 events were analyzed. All samples were analyzed in triplicate, and three different experiments were performed and analyzed using GraphPad Prism 8 (Prism 4 for Mac OS X, version 5.0b, San Diego, CA, USA).
In general terms: In flow cytometry, cells or beads pass a laser one at a time.

For series [2] the following is noted: mouse, in vivo.
Series [3] can be described thus: Ex vivo biodistribution, ratios infected/control mice. The class given is in vivo. As to conditions: suggested from brain radioactivity of the iodinated radiotracer. How it is done:
Twenty-four hours after injection and immediately following SPECT/CT image acquisitions, anesthetized mice were euthanized using CO2, and tissue samples (brain, heart, stomach, liver, salivary glands, abdominal fat, small intestine, muscle, pancreas, lungs, spleen, kidneys, blood, thyroid, large intestine, genital tract) and urine were harvested. Samples were weighed, and their radioactivity was determined with a gamma counter (Wizard2, PerkinElmer, Courtaboeuf, France). Results were corrected for decay, injected dose, and organ weight and expressed as % ID/g because the bodyweight (BW) of mice was different between both groups (normal and infected).
Standard uptake values (SUVs) were also calculated ((tissue activity/gram of tissue)/ID × BW). Due to high activity detected in the animal blood, results were also expressed as a ratio between %ID in a gram of organ and %ID in a gram of blood (org/blood ratio). Then, to assess the effect of Toxoplasma infection on the biodistribution of the iodoJF363, the ratios of radioactivity (infected/noninfected) were calculated.

In series [4] the test system is Toxoplasma gondii. The series can be described thus: In vitro anti-Toxoplasma proliferation in infected HFF monolayers (parasitic index, ScanR microscopy). The class given is cell-based. The procedure: To investigate the effect of the JF363 on parasite proliferation, human HFFs were infected and treated with JF363 (concentrations ranging from 0 to 2 μM). After 24 h of culture, parasites were enumerated within the parasitophorous vacuole, and the IC50 was calculated for each parasite strain (Table 1).
To assess the drug activity on Toxoplasma gondii, confluent HFF monolayers were infected with parasites, 5 × 10^4 per well, then centrifuged for 30 s at 500× g and incubated for 30 min in a water bath at 37 °C to allow invasion. The wells were then washed three times with phosphate-buffered saline (PBS) to eliminate extracellular parasites, and drugs were added at various concentrations ranging from 1 to 2 μM in triplicate. After 24 h incubation at 37 °C in a humidified atmosphere containing 5% CO2, Hoechst 33342 (5 μg/mL) was added to host cells infected by parasites and further incubated for 20 min. After two washes, cells were fixed with 3.7% formaldehyde for 10 min at 37 °C.
In experiments using nonfluorescent parasites, Toxoplasma vacuoles were fixed for 15 min with 3.7% formaldehyde and stained with anti-GRA1 mAb diluted 1/500 in 2% bovine serum albumin (BSA) and 0.1% Triton X-100 in PBS, for 1 h at room temperature. After two washes, goat serum anti-mouse IgG (H + L)–Alexa-488 (1/500) was added for 20 min. Finally, Hoechst 33342 was added as described above.
The number of infected cells, i.e., cells harboring parasitophorous vacuoles, and the number of parasites per vacuole were determined using an Olympus ScanR microscope (×20 objective) and ScanR software. First, the parasitic index (PI) in % compared to the control was calculated as follows: PI = ((number of parasite/100 cells in treated wells) × (% of infected HFFs in treated well)/(number of parasite/100 cells in untreated wells) × (% of infected HFFs in untreated wells)) × 100. Then, the 50% inhibitory concentration (IC50) was calculated using Prism software (Prism 4 for Mac OS X, version 5.0b, San Diego, CA, USA).

For series [5], the system named is T. gondii type II Prugniaud strain. Kind of series: Chronic phase study: brain cyst burden in infected CBA mice. The class given is in vivo, mouse. How it is done: To assess the efficacy of compound JF363 on Toxoplasma cyst formation, infected CBA mice were treated for 15 days, two months post-infection. Then, 15 days later, mice were sacrificed, and brain cysts were counted.
Inbred CBA mice (Janvier Labs, Le Genest-Saint-Isle, France) were infected with 500 tachyzoites of Pru-DeltaKu80::HX strain. One month post-infection, effective infection was assessed by ELISA as described previously. Two months post-infection, mice were treated with 20 or 40 mg/kg of JF363 (corn oil/5% DMSO) for 15 days. Animals were sacrificed 15 days later, corresponding to 3 months post-infection, and brain cysts were counted. After removal and homogenization of mouse’s brain in 4 mL of PBS, suspensions were clarified by gentle incubation in proteinase K buffer (proteinase K 0.4 mg/mL, 10 mM Tris pH 8, ethylenediaminetetraacetic acid (EDTA) 1 mM, sodium dodecyl sulfate (SDS) 0.2%, sodium chloride 40 mM) for 15 min at 56 °C. The reaction was stopped by adding phenylmethylsulfonyl fluoride (PMSF) 2 mM and further incubation for 5 min at room temperature. The suspension was then washed with PBS and resuspended with fluorescein isothiocyanate (FITC)–Dolichos biflorus agglutinin (Vector Laboratories, CA, USA) […] for 30 min, at room temperature. At the end of the incubation, the suspension was washed with PBS and resuspended in a final volume of 1 mL of PBS distributed into six-well culture plates (1 brain per well). The number of cysts was counted by exanimation under an Axiovert 40 CFL inverted fluorescence microscope, Zeiss.

Regarding `COc1cccc(CC(=O)Nc2ccc(C(=O)NO)cc2)c1` [JF363], the IC50 in series [1] was 230 ± 15 nM; in series [4] (24 h, read-out: IC50 range, strains other than haplogroup I and II, 24 h), 170 to 430 nM; in series [4] (24 h, strain GUY008-ABE, haplogroup 5, clade F, 24 h, mean ± SD of 3 experiments), 300 ± 210 nM; in series [4] (24 h, strain GUY009-AKO, haplogroup 10, clade F, 24 h, mean ± SD of 3 experiments) it was 430 ± 120 nM; in series [4] (24 h, strain GUY021-TOJ, haplogroup 10, clade F, 24 h, mean ± SD of 3 experiments), 270 ± 30 nM; in series [4] (24 h, strain GUY-JAG1, haplogroup 11, no clade, 24 h, mean ± SD of 3 experiments) it was 170 ± 340 nM. Moreover, the IC50 in series [4] (24 h, strain MAS, haplogroup 4, clade B, 24 h, mean ± SD of 3 experiments) was 210 ± 10 nM; in series [4] (24 h, strain Prugniaud, haplogroup 2, clade D, 24 h, mean ± SD of 3 experiments), 270 nM; in series [4] (24 h, strain RH-YFP, haplogroup 1, clade A, 24 h, mean ± SD of 3 experiments) it was 560 ± 50 nM; in series [4] (24 h, strain VEG, haplogroup 3, clade C, 24 h, mean ± SD of 3 experiments) it was 180 ± 70 nM; in series [4] (all tested T. gondii strains, depending on the haplogroup, read-out: IC50 range), 170 to 560 nM. Moreover, in series [2], the “toxicity in healthy treated mice (survival, hair loss, erythema, organ failure)” value is reported as “not toxic”. Moreover, in series [3], the “blood–brain barrier permeability” value is recorded as “suggests a permeability of the blood–brain barrier”. Moreover, in series [5] (40 mg/kg), the “diminution of cyst burden in the brain compared to untreated animals” value amounted to 65%. In addition, the “number of brain cysts, range” value in series [5] (40 mg/kg oral for 15 days, two months post-infection, nontreated 76 to 312) is 21–85. Further, in series [5] (40 mg/kg oral for 15 days, two months post-infection, nontreated 168 ± 95, p < 0.05), the “number of brain cysts (mean ± SD)” value came out at 57 ± 29.
